Data taken from patent US6897199B2, “Pharmaceutically acceptable salts of phenoxazine and phenothiazine compounds” (Dr. Reddy's Laboratories Ltd., priority 2001, dated 2005).
Structures can show the parent of a compound that is named as a salt.

How the values were obtained:
[1] = target: T1, hPPARα (Homo sapiens, UniProt Q07869); settings: compound concentration 50 μM; luciferase activity, HEK-293 cells
T1 sequence (Q07869 239-466 limits assumed): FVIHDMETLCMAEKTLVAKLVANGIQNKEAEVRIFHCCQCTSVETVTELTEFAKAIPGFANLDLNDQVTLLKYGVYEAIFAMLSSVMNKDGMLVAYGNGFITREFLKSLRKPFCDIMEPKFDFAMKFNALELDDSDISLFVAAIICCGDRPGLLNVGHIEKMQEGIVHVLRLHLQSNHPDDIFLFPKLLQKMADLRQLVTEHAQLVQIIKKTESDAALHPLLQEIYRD
Method: a) Determination of hPPARα Activity
Ligand binding domain of hPPARα was fused to DNA binding domain of Yeast transcription factor GAL4 in eucaryotic expression vector. Using superfect (Qiagen, Germany) as transfecting reagent HEK-293 cells were transfected with this plasmid and a reporter plasmid harboring the luciferase gene driven by a GAL4 specific promoter. Compound was added at different concentrations after 42 hrs of transfection and incubated overnight.

[2] = test system: hypercholesterolemic rat models; assay: Plasma triglyceride and cholesterol lowering activity in hypercholesterolemic rat models; format: in vivo, Male Sprague Dawley rats; settings: dose 10 mg/kg orally for 3 days
Method: b) Plasma triglyceride and Cholesterol Lowering Activity in Hypercholesterolemic Rat Models
Male Sprague Dawley rats (NIN stock) were bred in DRF animal house. Animals were maintained under 12 hour light and dark cycle at 25±1° C. Rats of 180-200 gram body weight range were used for the experiment. Animals are made hypercholesterolemic by feeding 2% cholesterol and 1% sodium cholate mixed with standard laboratory chow [National Institute of Nutrition (NIN), Hyderabad, India] for 6 days. Throughout the experimental period the animals are maintained on the same diet (Petit, D., Bonnefis, M. T., Rey, C and Infante, R. Effects of ciprofibrate on liver lipids and lipoprotein synthesis in normo- and hyperlipidemic rats. Atherosclerosis. 1988.74: 215-225).
The test compounds were administered orally at a dose 0.1 to 30 mg/kg/day for 3 days. Control group is treated with vehicle alone (0.25% Carboxymethylcellulose; dose 10 ml/kg).
The blood samples were collected in fed state 1 hour after drug administration on 0 and 3 day of compound treatment. The blood was collected from the retro-orbital sinus through heparinised capillary in EDTA containing tubes. After centrifugation, plasma sample is separated for total cholesterol, HDL and triglyceride estimations. Measurement of plasma triglyceride (TG), total cholesterol (TC) and HDL are done using commercial kits (Dr. Reddy's Laboratory, Diagnostic Division, India). LDL and VLDL cholesterol were calculated from the data obtained for total cholesterol, HDL and triglyceride. The reduction of various parameters examined are calculated according to the formula given below.
Formulae for Calculation: • 1. Percent reduction in Blood sugar/triglycerides/total cholesterol were calculated according to the formula: [formula] • OC=Zero day control group value • OT=Zero day treated group value • TC=Test day control group value • TT=Test day treated group value • 2. LDL and VLDL cholesterol levels were calculated according to the formula: [formula] VLDL cholesterol in mg/dl=[Total cholesterol−HDL cholesterol−LDL cholesterol]mg/dl.

(−)-3-[4-[2-(Phenoxazin-10-yl)ethoxy]phenyl]-2-ethoxypropanoic acid phenylglycinol salt [Example 12]
PPARα [1]: 3.7

CCO[C@@H](Cc1ccc(OCCN2c3ccccc3Oc3ccccc32)cc1)C(=O)O [Example 3, (−)-3-[4-[2-(Phenoxazin-10-yl)ethoxy]phenyl]-2-ethoxypropanoic acid metformin salt]
LDL ([2]; LDL cholesterol calculated from TC, HDL and TG): 46
VLDL ([2]; VLDL cholesterol calculated from TC, HDL and TG): 82
HDL ([2]; plasma HDL): 64
TC ([2]; plasma total cholesterol, percent reduction by formula of b285): 82
TG ([2]; plasma triglyceride, percent reduction by formula of b285): 47
